Earlier results, collected in US10040838B2, “CRHR2 peptide agonists and uses thereof” (JANSSEN PHARMACEUTICA NV, priority 2008, dated 2018).
No end group written: not given here.

Molecular target: T1, h-CRHR1 (Homo sapiens, UniProt P34998)
T1 sequence (P34998 24-415): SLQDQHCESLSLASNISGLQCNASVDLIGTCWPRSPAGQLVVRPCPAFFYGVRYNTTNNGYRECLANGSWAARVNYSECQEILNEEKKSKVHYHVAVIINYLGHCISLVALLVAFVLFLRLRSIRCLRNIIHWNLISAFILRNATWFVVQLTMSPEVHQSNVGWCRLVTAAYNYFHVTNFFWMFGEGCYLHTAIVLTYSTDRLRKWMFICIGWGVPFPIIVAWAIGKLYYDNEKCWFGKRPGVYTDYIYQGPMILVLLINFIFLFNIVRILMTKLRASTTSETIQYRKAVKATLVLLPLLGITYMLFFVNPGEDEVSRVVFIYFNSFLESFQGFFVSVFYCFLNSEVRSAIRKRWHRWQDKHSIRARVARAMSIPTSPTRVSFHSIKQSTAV
Settings: h-CRHR1 transfected HEK-293 cells, approximated from concentration response curves, Hsu et al. 2001; cited from earlier work

## HPGSRIVLSLDVPIGLLQILLEQARARAAREQATTNARILARV-NH2 [SEQ ID NO: 117, HPGSRIVLSLDVPIGLLQILLEQARAPAAREQATTNARILARV-NH2, reference compound]
  Published pA50: >7^3
